The values that follow come from patent US20250338846A1, “COMPOSITIONS HAVING PESTICIDAL UTILITY AND PROCESSES RELATED THERETO” (CORTEVA AGRISCIENCE, LLC, priority 2022, published 2025).

The subject of assay [1] is Western Tarnished Plant Bug (Lygus hesperus, LYGUHE). The experiment in a line: Bioassay 4: Western Tarnished Plant Bug, soaked green bean segments, living nymphs 3 days after application. The format is in vivo. The method, then:
where X=No. of live nymphs on solvent check leaf discs and Y=No. of live nymphs on treated leaf discs. In Table B3 the “Expected % Control” was calculated using the method described in Colby S. R., Weeds, 1967, 15, 20-22. Bioassay 4: Western Tarnished Plant Bug (Lygus hesperus, LYGUHE) (“WTPB”).
Stock solutions were prepared with Formula One as well as for each of the active ingredients individually. Test solutions were prepared from the stock solutions. Test solutions were prepared containing Formula One, the individual active ingredients, and mixtures of Formula One with each of the active ingredients. The test solution for Formula One was prepared by adding 500 μL of the stock solution to a 25 mL glass vial, then adding 500 μL of acetone, followed by the addition of 9 mL water with 0.025% Tween®) 20 to create a 0.04% (w/v) solution. The test solutions of the individual active ingredients were prepared by adding 500 μL of stock solution to a 25 mL glass vial, then adding 500 μL of acetone, followed by the addition of 9 mL water with 0.025% Tween®) 20 to create a 0.005% (w/v) solution. The test solutions containing mixtures of Formula One and the individual active ingredients were prepared by adding 500 μL of the active ingredient stock solution to a 25 mL glass vial, followed by 500 μL of the Formula One stock solution, then by the addition of 9 mL water with 0.025% Tween®) 20 to create a test solution containing 0.04% (w/v) Formula One and 0.005% (w/v) of the active ingredient. Each test solution was serially diluted to create desired doses of test solutions (0.005% (w/v), 0.00125% (w/v), 0.0003125% (w/v), 0.000078% (w/v), and 0.0000195% (w/v)). In test solutions containing mixtures of Formula One and the active ingredients, the active ingredients were diluted as described above, but the Concentration of Formula One was held constant (0.04% (w/v)).
The test solutions were tested against WTPB using the following procedure: Fresh green beans were cut into segments approximately 1.5 inches long. Four bean segments were added to each 25 mL vial containing the test solutions and soaked for approximately 15 minutes. After soaking, a single bean fragment was removed and placed into a single well of a 32-well rearing tray (Frontier Agricultural Sciences™), on top of a round filter paper disc. A reference treatment (solvent check) was treated with the diluent only. Each treatment was replicated four times and the test treatments were held at approximately 26° C. and ambient relative humidity (RH) prior to grading. Bean segments were allowed to air dry for ˜30 minutes. Three WTPB nymphs were added to and contained in each well with a clear perforated adhesive lid. The total number of living WTPB nymphs was recorded 3 days after application. Scoring was based off the total number of living nymphs out of all four replicates. Percent control was measured using Abbott's correction formula (W. S. Abbott, J. Econ. Entomol. 18 (1925), pp. 265-267) as follows:
X=No. of live nymphs on solvent check and Y=No. of live nymphs on treated bean segments. In Table B4 the “Expected % Control” was calculated using the method described in Colby S. R., Weeds, 1967, 15, 20-22. Bioassay 5: Neotropical Brown Stink Bug (Euschistus heros, EUSCHE) (“BSB”).

Assay [2] deals with Western Flower Thrips (Frankliniella occidentalis, FRANOC). The experiment in a line: Bioassay 3: Western Flower Thrips, cotton leaf disc dip, live WFT counted 3 days after treatment. The format is in vivo. To be noted: for pest or weed control at 7.8e-05 % strength: read-out: Average % Control AI. Summed up:
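Cotton leaf discs were dipped in acetone/water solutions with 0.025% Tween 20, at 0.005% to 0.0000195% (w/v) for single actives; mixtures held Formula One constant at 0.04% (w/v). Discs were air dried, infested with 5 nymphs aged 9-10 days, and held at approximately 26° C. Live thrips were counted at 3 days, with Abbott-corrected control against solvent checks.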

The mark [3] stands for this setting: Frankliniella occidentalis, foliar, 72 h, AI alone 0.0003125 % w/v.

Where two headings read alike, the source gives them in different places.

Turning to `Cc1c(COC(=O)[C@@H]2[C@H](/C=C(\Cl)C(F)(F)F)C2(C)C)cccc1-c1ccccc1` (racemic) [Bifenthrin], in assay [1] (AI alone 0.00125 % w/v), the “Average % Control AI” value worked out at 17%.

Consider `O=[N+]([O-])NC1=NCCN1Cc1ccc(Cl)nc1` [Imidacloprid], for which, in assay [2] (setting [3]), the pest or weed control at 0.0003125 % strength was 0%. For the same compound, in assay [1] (AI alone 0.00125 % w/v), the “Average % Control AI” value is listed as 13%.

Consider `CON=CNC(=O)c1ccc(C2=NOC(c3cc(Cl)cc(Cl)c3)(C(F)(F)F)C2)cc1C` (stereo not drawn) [Fluxametamide], for which the “Average % Control AI” value in assay [2] (AI alone 0.0003125 % w/v) was found to be 67%.

Take `CN1COCN(Cc2cnc(Cl)s2)/C1=N\[N+](=O)[O-]` [Thiamethoxam]: the pest or weed control at 7.8e-05 % strength in assay [2] (Frankliniella occidentalis, foliar, 72 h, AI alone 0.000078 % w/v) is 7%. In addition, in assay [1] (AI alone 0.0003125 % w/v), the “Average % Control AI” value amounted to 65%.

With Abamectin, in assay [1] (AI alone 0.00125 % w/v), the “Average % Control AI” value worked out at 0%.

`CC[S+]([O-])c1c(C#N)nn(-c2c(Cl)cc(C(F)(F)F)cc2Cl)c1N` (stereo not drawn) [Ethiprole] returned a pest or weed control at 0.005 % strength in assay [2] (Frankliniella occidentalis, foliar, 72 h, AI alone 0.005 % w/v) of 0%.

As to Emamectin Benzoate, the “Average % Control AI” value in assay [2] (AI alone 0.005 % w/v) came to 38%.

For the compound `COP(=O)(NC(C)=O)SC` (stereo not drawn) [Acephate], the pest or weed control at 7.8e-05 % strength in assay [2] (Frankliniella occidentalis, foliar, 72 h) was found to be 5%. For the same compound, in assay [1] (AI alone 0.005 % w/v), the “Average % Control AI” value was 0%.

In assay [2] (setting [3]), `CC1(C)[C@H](C(=O)O[C@H](C#N)c2cccc(Oc3ccccc3)c2)[C@@H]1/C=C(\Cl)C(F)(F)F` (racemic) [Lambda Cyhalothrin] came in with a pest or weed control at 0.0003125 % strength of 7%. The “Average % Control AI” value in assay [1] (AI alone 0.000078 % w/v) was found to be 0%.

With `C/C(=N\C#N)N(C)Cc1ccc(Cl)nc1` [Acetamiprid], in assay [2] (setting [3]), the pest or weed control at 0.0003125 % strength was 13%. Moreover, in assay [1] (AI alone 0.00125 % w/v), the “Average % Control AI” value is on record as 0%.
